Read-outs that look alike come from different tables or passages of the source. Square brackets hold non-standard residues; d marks the D form. Peptide text beside a SMILES is read from it. Phe(4-NO2) = N[C@@H](Cc1ccc([N+](=O)[O-])cc1)C(=O)O; Phe(4-F) = N[C@@H](Cc1ccc(F)cc1)C(=O)O; 1Nal = N[C@@H](Cc1cccc2ccccc12)C(=O)O; 2Nal = N[C@@H](Cc1ccc2ccccc2c1)C(=O)O; Dmt = Cc1cc(O)cc(C)c1C[C@H](N)C(=O)O; dNva = CCC[C@@H](N)C(=O)O
What was measured:
μ receptor = target: T1, μ receptor (Rattus norvegicus, UniProt P33535); assay: Radioligand binding assay, μ opioid receptor ((3H)-DAMGO, brain membranes); details: for Binding Assay Kiδ Kiμ: selectivity ratio
T1 construct: the brains (minus the cerebellum) were removed, placed in ice-cold saline solution, and then homogenized; from tissue; host or cells: rat brain (minus cerebellum) membranes
T1 sequence (P33535 whole entry): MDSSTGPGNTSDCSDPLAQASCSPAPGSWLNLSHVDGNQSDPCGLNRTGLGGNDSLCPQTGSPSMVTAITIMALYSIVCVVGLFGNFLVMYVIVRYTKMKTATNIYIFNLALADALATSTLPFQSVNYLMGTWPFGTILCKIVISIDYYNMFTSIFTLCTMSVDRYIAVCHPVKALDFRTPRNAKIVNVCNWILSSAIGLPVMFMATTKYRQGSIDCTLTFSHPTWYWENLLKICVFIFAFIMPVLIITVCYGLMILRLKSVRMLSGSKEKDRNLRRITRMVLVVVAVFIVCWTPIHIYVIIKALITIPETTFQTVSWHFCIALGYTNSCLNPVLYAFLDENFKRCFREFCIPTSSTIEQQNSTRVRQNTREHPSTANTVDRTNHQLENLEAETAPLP
Procedure: (§1) PBQ (phenyl-ρ-benzoquinone) induced writhing in mice is an assessment of both central and peripheral analgesia (see Sigmund, et al., Proc. Soc. Exp. Biol. Med. 95:729 (1957)). Central analgesia is determined by the inhibition of a hot-plate response in mice (see, Wolfe, et al., J. Pharmacol. Exp. Ther. 80:300 (1944)). Assays measuring opioid receptor binding affinities for μ and δ receptors as well as the GPI assay were determined through experimental protocol set out in Schiller et al. (Biophys. Res. Commun. 85:1322 (1975)). The references by Sigmund, et al., Wolfe, et al., and Schiller, et al. are each hereby incorporated by reference.
(§2) Male Sprague-Dawley rats weighing between 350-450 g were sacrificed by inhalation of CO2. The rats were decapitated and the brains (minus the cerebellum) were removed, placed in ice-cold saline solution, and then homogenized in ice-cold 50 mM Tris buffer pH 7.4 (10 ml/brain). Membranes were centrifuged at 14000 rpm for 30 min. at 4° C. The pellets were re-suspended in approximately 6 ml/brain of ice-cold Tris buffer 50 mM pH 7.4 and stored at −78° C. until ready for use. Protein quantification of the brain homogenate was conducted according to protein assay kit purchased (Bio-Rad).
(§3) (^3H)-DAMGO and (^3H)-DAGLE were used as radioligands for the μ and δ receptors, respectively. Radioligand 50 μl, membranes 100 μl, and serially diluted test compound were incubated for 1 hr at 22° C. Nonspecific binding was determined using a 500 fold excess of unlabeled ligand in the presence of tracer and membranes. Free ligand was separated from bound by filtration through Whatman GF/B paper (presoaked in polyethylenimine 1% aqueous solution) and rinsing with ice-cold 50 mM Tris pH 7.4 using a Brandel cell harvester. The filters were dried and radioactivity was counted in a 24 well microplate in the presence of 500 μl scintillant per well. Radioactivity was measured using a Wallace 1450 Microbeta counter. Ki's for the various compounds were determined from the IC50 according to the Cheng and Prusoff equation.

μ receptors = μ receptors (Cavia porcellus, UniProt P97266); assay: Guinea Pig Ileum (GPI) assay, longitudinal muscle preparation
Chain of μ receptors (P97266 whole entry, looked up): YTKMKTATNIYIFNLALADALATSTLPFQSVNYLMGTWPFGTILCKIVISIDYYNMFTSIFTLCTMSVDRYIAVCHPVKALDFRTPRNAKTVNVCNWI
Procedure: The activity of the peptide compounds on μ receptors was determined using the Guinea Pig Ileum (GPI) assay (longitudinal muscle preparation) according to the procedures described in Schiller et al., Biophys. Res. Commun. 85:1322 (1975).

[1] = tested on: PBQ induced writhing in mice; assay: PBQ (phenylquinone)-induced writhing assay; assay type: in vivo, mouse; details: for ED50(PBQ): mouse s.c.; for Writhing ED50: Table 2, mouse
Procedure: The test was performed on CD #1 male mice weighing between 18 and 22 g. Mice were weighed, marked and then injected, by the intraperitoneal route, with 0.3 ml/20 g by weight of a solution of phenylquinone at 0.02%. The contortions which appeared during a 15 minute time period following the injection were counted. The phenylquinone was injected at time intervals of 5, 20 or 60 minutes after administration of the compound (or medium, or standard) by subcutaneous route. It was injected at time intervals of 60 minutes after the administration of the compound (or medium, or standard) by oral route;
The 0.02% phenylquinone solution was prepared as follows: 20 mg of phenylquinone was dissolved in 5 ml ethanol 90% (Sigma). The dissolved phenylquinone was slowly added to 95 ml of distilled water continuously shaken and preheated (not boiled). The phenylquinone solution was, at all times protected from light and a new solution was prepared every day for the test. Each group usually contained 10 mice. If an antagonist, such as naloxone, was used, it was administered 20 minutes before the compound (or the medium, or the standard) by the intraperitoneal route.
Writhing assays were performed on CD#1 male mice weighing between […]. Assays were carried out as described in Example 3 and results are summarized below in Table 2.

δ receptor = δ receptor (Rattus norvegicus, UniProt P33533); assay: biochemical
Chain of δ receptor (P33533 whole entry): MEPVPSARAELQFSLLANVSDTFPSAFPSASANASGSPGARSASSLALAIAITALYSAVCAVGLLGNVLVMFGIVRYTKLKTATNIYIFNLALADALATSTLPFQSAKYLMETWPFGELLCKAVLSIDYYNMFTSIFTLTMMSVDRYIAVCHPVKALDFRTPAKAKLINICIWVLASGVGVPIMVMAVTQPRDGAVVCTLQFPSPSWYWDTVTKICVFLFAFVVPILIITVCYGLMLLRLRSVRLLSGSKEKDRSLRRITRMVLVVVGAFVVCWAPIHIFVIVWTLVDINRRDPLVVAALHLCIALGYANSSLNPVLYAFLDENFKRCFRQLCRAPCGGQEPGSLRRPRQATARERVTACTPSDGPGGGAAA
Procedure: as §1, §2, §3

[2] = tested on: hot-plate response in mice; details: in vivo; for Hot Plate: sc; for central analgesic effect in the mouse hot plate test: 100 mg/kg
mice = assay: Lethal effects / safety in mice; details: 1-5 mg kg−1 i.v. bolus dose

| Compound | Ki (μ receptor; Ki^μ, Table 1) | IC50 (μ receptors; GPI(IC50), Table 1) | Writhing ED50 [1] | ED50(PBQ) ([1]; 20 min post administration) | Hot Plate ([2]; mouse) | other results |
| --- | --- | --- | --- | --- | --- | --- |
| C[C@@H](NC(=O)[C@@H](N)Cc1ccc(O)cc1)C(=O)N[C@@H](Cc1ccccc1)C(=O)N[C@@H](Cc1ccc2ccccc2c1)C(N)=O [BCH757, H-Tyr-D-Ala-Phe-2′-Nal-NH2] (H-Y[dA]F[2Nal]-NH2) | 0.655 nM | 2 nM |  |  |  | ED50(PBQ) ([1]; 5 min.): 1.1 (5 min.) mg/kg |
| C[C@@H](NC(=O)[C@@H](N)Cc1ccc(O)cc1)C(=O)N[C@@H](Cc1ccccc1)C(=O)N[C@@H](Cc1ccccc1)C(N)=O [BCH1774, H-Tyr-D-Ala-Phe-Phe-NH2] (H-Y[dA]FF-NH2) |  |  | 1.4 mg/kg | 1.4 mg/kg | >100 mg/kg | Ki (μ receptor; Table 1, read-out: Ki^μ): 1.53 nM; Ki (μ receptor; Table 2, read-out: Binding Assay Kiμ): 1.53 nM; Binding Assay Kiδ Kiμ (μ receptor; Table 2): 409; Ki (δ receptor; read-out: Binding Assay Kiδ, Table 2): 626 nM; IC50 (μ receptors): 3 nM; duration of analgesic effect in writhing assay ([1]; 20 mg/kg s.c. BCH1774 vs 30 mg/kg s.c. BCH2463, FIG. 3): lasted longer than for BCH2463; lethal effects upon mice (mice): exhibited lethal effects |
| C[C@@H](NC(=O)[C@@H](N)Cc1ccc(O)cc1)C(=O)N[C@@H](Cc1ccccc1)C(=O)N[C@@H](Cc1ccc([N+](=O)[O-])cc1)C(N)=O [BCH1776, H-Tyr-D-Ala-Phe-Phe(4-NO2)—NH2] (H-Y[dA]F[Phe(4-NO2)]-NH2) | 0.509 nM | 8 nM |  | 4 mg/kg |  |  |
| C[C@@H](NC(=O)[C@@H](N)Cc1ccc(O)cc1)C(=O)N[C@@H](Cc1ccc([N+](=O)[O-])cc1)C(=O)N[C@@H](Cc1ccc([N+](=O)[O-])cc1)C(N)=O [BCH1777, H-Tyr-D-Ala-Phe(4-NO2)-Phe(4-NO2)—NH2] (H-Y[dA][Phe(4-NO2)][Phe(4-NO2)]-NH2) | 0.826 nM | 6 nM |  | >20 mg/kg |  |  |
| C[C@@H](NC(=O)[C@@H](N)Cc1ccc(O)cc1)C(=O)N[C@@H](Cc1ccccc1)C(=O)N[C@@H](Cc1cccc2ccccc12)C(N)=O [BCH1782, H-Tyr-D-Ala-Phe-1′-Nal-NH2] (H-Y[dA]F[1Nal]-NH2) | 0.981 nM | 2 nM |  | >20 mg/kg |  |  |
| C[C@@H](NC(=O)[C@@H](N)Cc1ccc(O)cc1)C(=O)N[C@@H](Cc1c[nH]c2ccccc12)C(=O)N[C@@H](Cc1ccccc1)C(N)=O [BCH1784, H-Tyr-D-Ala-Trp-Phe-NH2] (H-Y[dA]WF-NH2) | 3.57 nM | 20 nM |  | >20 mg/kg |  |  |
| C[C@@H](NC(=O)[C@@H](N)Cc1ccc(O)cc1)C(=O)N[C@@H](Cc1ccccc1)C(=O)N[C@@H](Cc1c[nH]c2ccccc12)C(N)=O [BCH1785, H-Tyr-D-Ala-Phe-Trp-NH2] (H-Y[dA]FW-NH2) | 2.21 nM | 16 nM |  | >20 mg/kg |  |  |
| CCC[C@@H](NC(=O)[C@@H](N)Cc1ccc(O)cc1)C(=O)N[C@@H](Cc1ccccc1)C(=O)N[C@@H](Cc1ccccc1)C(N)=O [BCH2462, H-Tyr-D-Nva-Phe-Phe-NH2] (H-Y[dNva]FF-NH2) |  |  |  | 2.7 mg/kg | >100 mg/kg | central analgesic effect in the mouse hot plate test [2]: No central analgesic effect was observed; reaction time in the hot plate test ([2]; mouse): approximately 8 seconds; lethal effects upon mice (mice): exhibited lethal effects |
| N=C(N)NCCC[C@@H](NC(=O)[C@@H](N)Cc1ccc(O)cc1)C(=O)N[C@@H](Cc1ccccc1)C(=O)N[C@@H](Cc1ccccc1)C(N)=O [BCH2687, H-Tyr-D-Arg-Phe-Phe-NH2] (H-Y[dR]FF-NH2) |  |  | 0.5 mg/kg |  | >100 mg/kg | central analgesic effect in the mouse hot plate test [2]: No central analgesic effect was observed; reaction time in the hot plate test ([2]; mouse): approximately 8 seconds |
| NC(=O)[C@H](Cc1ccccc1)NC(=O)[C@H](Cc1ccccc1)NC(=O)[C@@H](CS)NC(=O)[C@@H](N)Cc1ccc(O)cc1 [BCH2690, H-Tyr-D-Cys-Phe-Phe-NH2] (H-Y[dC]FF-NH2) |  |  |  | 6.2 mg/kg | >100 mg/kg |  |
| Cc1cc(O)cc(C)c1C[C@H](N)C(=O)N[C@H](CO)C(=O)N[C@@H](Cc1ccccc1)C(=O)N[C@@H](Cc1ccccc1)C(N)=O [BCH2813, H-Dmt-D-Ser-Phe-Phe-NH2] (H-[Dmt][dS]FF-NH2) |  |  |  | 0.15 mg/kg |  | dose at which found to act centrally in the hot plate test ([2]; mouse): about 40 mg/kg |
| C[C@@H](NC(=O)[C@@H](N)Cc1ccc(O)cc1)C(=O)N[C@@H](Cc1ccc(F)cc1)C(=O)N[C@@H](Cc1ccc(F)cc1)C(N)=O [Compound #1B, H-Tyr-D-Ala-Phe(pF)-Phe(pF)-NH2] (H-Y[dA][Phe(4-F)][Phe(4-F)]-NH2) |  |  | 0.2 mg/kg |  |  | Ki (μ receptor; Binding Assay Kiμ, Table 2): 0.2 nM; Binding Assay Kiδ Kiμ (μ receptor; Table 2): 998; Ki (δ receptor): 200 nM; IC50 (μ receptors; CPI IC50, Table 2): 0.12 nM |
| C[C@@H](NC(=O)[C@@H](N)Cc1ccc(O)cc1)C(=O)N[C@@H](Cc1ccc(F)cc1)C(=O)N[C@@H](Cc1ccccc1)C(N)=O [Compound #1C, H-Tyr-D-Ala-Phe(pF)-Phe-NH2] (H-Y[dA][Phe(4-F)]F-NH2) |  |  | 0.5 mg/kg |  |  | Ki (μ receptor; Binding Assay Kiμ, Table 2): 0.36 nM; Binding Assay Kiδ Kiμ (μ receptor; Table 2): 559; Ki (δ receptor): 201 nM |
| N=C(N)NCCC[C@@H](NC(=O)[C@@H](N)Cc1ccc(O)cc1)C(=O)N[C@@H](Cc1ccc(F)cc1)C(=O)N[C@@H](Cc1ccc(F)cc1)C(N)=O [Compound #2B, H-Tyr-D-Arg-Phe(pF)-Phe(pF)-NH2] (H-Y[dR][Phe(4-F)][Phe(4-F)]-NH2) |  |  | 0.3 mg/kg |  |  | Ki (μ receptor; Binding Assay Kiμ, Table 2): 0.22 nM; Ki (δ receptor): > 1000 nM |
| N=C(N)NCCC[C@@H](NC(=O)[C@@H](N)Cc1ccc(O)cc1)C(=O)N[C@@H](Cc1ccc(F)cc1)C(=O)N[C@@H](Cc1ccccc1)C(N)=O [Compound #2C, H-Tyr-D-Arg-Phe(pF)-Phe-NH2] (H-Y[dR][Phe(4-F)]F-NH2) |  |  | 0.3 mg/kg |  |  | Ki (μ receptor; Binding Assay Kiμ, Table 2): 0.57 nM; Binding Assay Kiδ Kiμ (μ receptor; Table 2): 1671; Ki (δ receptor): 952 nM; IC50 (μ receptors; CPI IC50, Table 2): 1.52 nM |
| H-Y[dS]FF-NH2 [BCH2463] |  |  |  | 0.5 mg/kg | >100 mg/kg | central analgesic effect in the mouse hot plate test [2]: No central analgesic effect was observed; reaction time in the hot plate test ([2]; mouse): about 9 seconds |
